Source: patent publication US7888357B2, “Anti-inflammatory and protein kinase inhibitor compositions and related methods for downregulation of detrimental cellular responses and inhibition of cell death” (Northwestern University, priority 2001, dated 2011)
Entries after “also recorded” stand apart in the source; their conditions may differ. Where two headings read alike, the source gives them in different places.

Key:
[1] = molecular target: T1, myosin light chain kinase (MLCK) (Gallus gallus, UniProt P11799); test: Reconstituted enzyme assay, MLCK; format: biochemical, chicken
T1 construct: chicken gizzard MLCK prepared as described; from tissue; host or cells: chicken gizzard
Description: (§1) [table] […] The rationale for using BV-2 cells in high throughput screening was the paucity of well-characterized human microglial cell lines, and the relevant activation responses and signaling pathways reflect those seen in human and rodent primary microglial cultures. Compounds were tested for their effects on NO accumulation in conditioned media of LPS-stimulated BV-2 cells by measurement of nitrite production by the Griess assay as a read-out for iNOS activity, as described previously. Stock solutions of compounds were prepared in dimethylsulfoxide (DMSO) or in water. When stock solutions were prepared in DMSO, control wells contained the same final concentration of DMSO as the compound-containing wells. […] Solutions of compounds for cell treatments were diluted to a 10× final concentration by dilution of stock solutions in αMEM media. […] Reconstituted enzyme assays were done as described s. The sources of protein kinases were: bovine heart PKA from Promega, rat brain PKC from Calbiochem, rat CaMKII from New England Biolabs, chicken gizzard MLCK prepared as described, and a p38 MAP kinase kit containing recombinant Xenopus p38-MAPK and its human substrate from Upstate Biotechnology. The catalytic domains of these protein kinases retain a high level of amino acid sequence identity across mammalian species, consistent with the lack of documented major differences across species for the in vitro catalytic activity of a given kinase.

[2] = molecular target: protein kinase C (PKC); test: Reconstituted enzyme assay, PKC; format: biochemical, rat
Description: as §1

[3] = system: WT mice; test: Endotoxin (LPS)-mediated acute lung injury; format: in vivo, mouse; settings: 2.5 mg/kg IP 1 hour prior to LPS 10 mg/kg IP; 24 hours
Description: To confirm the specific role of EC MLCK in the reduced susceptibility of KO mice to endotoxin-mediated lung injury, a representative composition of this invention was used to determine whether pharmacologic inhibition of MLCK would also reduce LPS-induced lung injury. (See, examples 25-26, below.) WT mice were treated with 2.5 mg/kg of a representative MLCK inhibitor (e.g., cpd MW01-022AZ) 1 hour prior to administration of LPS.
Endotoxin-mediated lung injury. LPS (Sigma, St. Louis, Mo.) (10 mg/kg) was administered via intraperitoneal (ip) injection. Animals were allowed to recover for 24 hours prior to determination of lung injury. Control animals received an equivalent volume of sterile saline.
[drawing 161] are shown to be comparatively selective (using assay procedures and data analyses previously described) for inhibition of MLCK and related enzymes such as Rho kinase, and are bioavailable in various other animal models of disease. […] The stimulus in this example was IP injection of 10 mg/kg body weight of the bacterial endotoxin, lipopolysaccharide (LPS). The treatment with MW01-022AZ represents a clinically relevant dose of a kinase inhibitor therapeutic based on prior art with other kinases. Other compositions of this invention, having the structural relationships described and/or illustrated above, can also be employed.
Histologic analysis of lung injury after LPS exposure. […]

[4] = molecular target: death associated protein kinase (DAPK) (Homo sapiens, UniProt P53355); test: Enzyme assay, DAPK; format: biochemical; settings: for IC50: Table 6, read-out: Inhibition DAPK
Description: Therefore, compound MW01-026Z was selected as a starting point for variations on component A (Table 6). […] However, none of the A variations appeared to improve the activity and selectivity profile of CompoundMW01-026Z. (For purposes of illustration, only, component G was maintained throughout as an acyl moiety, while component R2 was varied as shown. All such compositions are available using the synthetic techniques described herein. Enzyme assays were conducted per procedures described elsewhere herein.) A more comprehensive structure activity relationship is summarized in Table 7, below.
With reference to the compositions of Table 3 and the enzyme assay techniques described elsewhere herein, Table 7 provides structural activity relationships observed, in accordance with this invention.

[5] = molecular target: T2, CaMKII (Rattus norvegicus, UniProt P11275); test: Reconstituted enzyme assay, CaMKII; format: biochemical; settings: Table 6; read-out: Inhibition CAMKII
T2 construct: purchased New England Biolabs
Description: as §1

[6] = system: Wistar rats at P7; test: Hypoxia-ischemia induced brain damage, hemispheric weight; format: in vivo
Excerpt: Induction of hypoxia-ischemia in postnatal day seven (P7) rats. Hypoxic-ischemic injury in P7 rats was induced using the well-characterized method of unilateral carotid ligation followed by hypoxia. This age is approximately equivalent to the 34 week gestation human infant. Male and female Wistar rats at P7 were removed from the mother and anesthetized with halothane (3.5% for induction and 1.5% for maintenance) 50% oxygen-balance nitrogen delivered via facemask. The right common carotid artery was identified and gently separated from the vagus nerve. The vessel was ligated with double 6-0 silk sutures to ensure cessation of blood flow. […]
Animals were sacrificed by halothane overdose at 7 days after hypoxia. […] Differences in weight between the hypoxic-ischemic and control contralateral hemisphere were calculated for each animal using the formula: 100*(C−I)/C=% damage where I represents the weight of the ipsilateral and C the weight of the contralateral hemisphere.
Data Analysis. All data are expressed as mean±SEM. The degree of hypoxic-ischemic brain injury after treatment with drug or saline is expressed as the percentage of reduction in the tissue weight of the hemisphere ipsilateral to carotid ligation. This was calculated as a ratio of the right (ipsilateral, ischemic) to the left (contralateral, non-ischemic) hemispheric weights as described previously in the literature. […]

[7] = Table 6, read-out: Inhibition MLCK
[8] = Table 6, read-out: Inhibition KC

T1 sequence (P11799 935-1906): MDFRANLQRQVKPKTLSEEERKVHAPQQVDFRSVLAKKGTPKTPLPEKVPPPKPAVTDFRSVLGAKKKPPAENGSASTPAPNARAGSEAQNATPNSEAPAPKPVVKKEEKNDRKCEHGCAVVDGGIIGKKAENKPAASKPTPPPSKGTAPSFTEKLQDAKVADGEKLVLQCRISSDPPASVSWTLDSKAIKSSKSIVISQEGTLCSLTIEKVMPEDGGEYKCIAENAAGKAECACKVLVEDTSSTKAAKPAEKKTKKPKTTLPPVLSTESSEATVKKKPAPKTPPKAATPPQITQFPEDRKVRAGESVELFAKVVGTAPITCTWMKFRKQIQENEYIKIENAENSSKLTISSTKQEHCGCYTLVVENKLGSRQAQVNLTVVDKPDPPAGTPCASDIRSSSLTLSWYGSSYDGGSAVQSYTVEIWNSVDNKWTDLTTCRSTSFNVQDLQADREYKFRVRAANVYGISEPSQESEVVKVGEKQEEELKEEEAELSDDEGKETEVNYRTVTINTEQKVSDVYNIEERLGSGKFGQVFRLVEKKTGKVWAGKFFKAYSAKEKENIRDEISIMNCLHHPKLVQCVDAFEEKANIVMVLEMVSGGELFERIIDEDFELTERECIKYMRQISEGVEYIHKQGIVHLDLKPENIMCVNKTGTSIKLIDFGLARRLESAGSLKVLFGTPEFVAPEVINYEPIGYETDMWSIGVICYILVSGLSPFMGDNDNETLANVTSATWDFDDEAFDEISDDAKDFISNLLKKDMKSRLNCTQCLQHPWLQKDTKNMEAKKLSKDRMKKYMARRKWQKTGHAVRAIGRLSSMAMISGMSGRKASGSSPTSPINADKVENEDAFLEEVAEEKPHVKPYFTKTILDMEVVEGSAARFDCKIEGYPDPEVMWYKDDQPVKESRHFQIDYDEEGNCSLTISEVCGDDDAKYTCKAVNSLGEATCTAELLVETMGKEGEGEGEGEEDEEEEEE
death associated protein kinase (DAPK), sequence (P53355 whole entry, species assumed): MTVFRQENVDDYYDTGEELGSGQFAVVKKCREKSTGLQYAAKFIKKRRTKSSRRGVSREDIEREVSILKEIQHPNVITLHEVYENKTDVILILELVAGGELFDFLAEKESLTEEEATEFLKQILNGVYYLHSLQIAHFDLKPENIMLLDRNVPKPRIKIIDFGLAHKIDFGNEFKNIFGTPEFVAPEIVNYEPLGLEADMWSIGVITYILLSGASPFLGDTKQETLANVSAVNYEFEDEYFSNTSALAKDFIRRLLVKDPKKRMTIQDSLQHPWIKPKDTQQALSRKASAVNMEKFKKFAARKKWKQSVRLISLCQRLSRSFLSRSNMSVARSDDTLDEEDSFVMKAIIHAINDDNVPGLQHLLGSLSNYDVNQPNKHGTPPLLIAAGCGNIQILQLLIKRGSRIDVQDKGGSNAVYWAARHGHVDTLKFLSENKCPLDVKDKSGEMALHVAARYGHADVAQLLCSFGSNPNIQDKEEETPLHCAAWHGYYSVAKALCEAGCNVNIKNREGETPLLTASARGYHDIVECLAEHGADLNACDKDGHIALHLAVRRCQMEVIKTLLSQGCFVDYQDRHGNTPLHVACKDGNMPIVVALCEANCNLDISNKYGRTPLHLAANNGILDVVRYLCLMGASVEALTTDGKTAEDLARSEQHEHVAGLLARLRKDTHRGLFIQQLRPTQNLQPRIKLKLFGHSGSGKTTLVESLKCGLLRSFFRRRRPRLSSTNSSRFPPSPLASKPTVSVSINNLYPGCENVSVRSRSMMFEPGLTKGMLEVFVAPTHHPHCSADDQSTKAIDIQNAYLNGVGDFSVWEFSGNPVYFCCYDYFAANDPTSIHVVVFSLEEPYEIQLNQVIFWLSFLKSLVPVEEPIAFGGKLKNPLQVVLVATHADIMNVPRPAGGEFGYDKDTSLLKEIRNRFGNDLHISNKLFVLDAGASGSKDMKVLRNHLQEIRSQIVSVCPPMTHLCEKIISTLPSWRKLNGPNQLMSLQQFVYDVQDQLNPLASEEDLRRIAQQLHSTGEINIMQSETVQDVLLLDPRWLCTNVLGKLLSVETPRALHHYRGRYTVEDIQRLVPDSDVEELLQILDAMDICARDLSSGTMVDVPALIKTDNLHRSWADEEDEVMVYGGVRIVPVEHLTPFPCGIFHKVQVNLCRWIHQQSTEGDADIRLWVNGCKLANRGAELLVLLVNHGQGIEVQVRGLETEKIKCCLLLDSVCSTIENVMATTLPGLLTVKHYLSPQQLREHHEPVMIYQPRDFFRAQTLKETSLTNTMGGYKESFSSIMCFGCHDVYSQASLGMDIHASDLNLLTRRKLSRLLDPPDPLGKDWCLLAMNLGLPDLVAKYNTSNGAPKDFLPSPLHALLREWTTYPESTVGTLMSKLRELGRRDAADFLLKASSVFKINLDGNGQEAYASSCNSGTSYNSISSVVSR
T2 sequence (P11275 1-325 limits assumed): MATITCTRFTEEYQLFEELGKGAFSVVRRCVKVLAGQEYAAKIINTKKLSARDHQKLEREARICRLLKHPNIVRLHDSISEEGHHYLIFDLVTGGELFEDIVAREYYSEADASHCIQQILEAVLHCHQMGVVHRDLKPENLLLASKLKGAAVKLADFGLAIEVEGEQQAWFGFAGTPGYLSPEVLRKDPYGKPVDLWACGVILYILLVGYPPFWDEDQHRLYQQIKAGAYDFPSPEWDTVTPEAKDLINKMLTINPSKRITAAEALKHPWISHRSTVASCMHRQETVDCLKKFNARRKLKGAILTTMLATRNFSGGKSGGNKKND

`COc1ccc(S(=O)(=O)N(CCO)c2ccccc2CN(C)C/C=C/c2ccc(Cl)cc2)cc1` [Compound 5, KN93, reference compound] showed an IC50 ([1]; γ-[32P]-ATP, synthetic peptide substrate, mean ± SEM, read-out: IC50 MLCK) of 9.8 ± 0.7 µM and an IC50 ([2]; γ-[32P]-ATP, synthetic peptide substrate, read-out: IC50 PKC) greater than 100 µM.
`N=c1ccc(Cl)nn1CCCCCCCCCCC(=O)Nc1ccc(-c2ccccc2)nn1` [MW01-022AZ] was tested, and the “LPS-induced lung injury (histology)” value [3] was “no evidence of lung injury; also recorded: close to normal”.
For `N=c1cc2c(nn1CCCCCCCCCCC(=O)Nc1ccc(-c3ccccc3)nn1)-c1ccccc1CC2` [MW01-026Z], the IC50 [4] was less than 20 µM, the “DAPK inhibitory activity” value ([4]; comparison among compounds) was “most potent DAPK inhibitor” and the IC50 [5] was greater than 100 µM. The “percent weight loss in the ischemic hemisphere compared to the contralateral hemisphere” value ([6]; 5 mg/kg IP 1 hour after carotid ligation, 7 day recovery to P14, mean±SEM, n=7) was 8.2±5.5%, the mortality ([6]; 5 mg/kg IP, versus vehicle group) was “no differences in mortality” and the IC50 [1, 7] was 20 to 50 µM. It also gave an IC50 [2, 8] greater than 100 µM.
Work on `N=c1cc2c(nn1CCCCCCCCCCC(=O)Nc1cc3c(nn1)-c1ccccc1CC3)-c1ccccc1CC2` [MW01-055V] yielded an IC50 [4] of 50 to 100 µM, an IC50 [1, 7] of less than 20 µM and an IC50 [2, 8] of 50 to 100 µM.
With `N=c1ccc(-c2ccccc2)nn1CCCCCCCCCCC(=O)Nc1ccc(-c2ccccc2)nn1` [MW01-125AZ] the IC50 [4] was 20 to 50 µM, the IC50 [5] was greater than 100 µM and the IC50 [1, 7] was greater than 100 µM. It also gave an IC50 [2, 8] of 20 to 50 µM.
